From patent EP2739618B1, “QUINAZOLINE COMPOUNDS AS SERINE/THREONINE KINASE INHIBITORS” (Array Biopharma, Inc., priority 2011, dated 2013)
pIC50: −log10 of the molar value.

How the values were obtained:
[1] = tested on: PMA-stimulated P90RSK(Ser380) phosphorylation; test: Cellular P90RSK(Ser380) Phosphorylation Assay; type: cell-based; settings: Homo sapiens; HepG2 cells, 1.5 h compound incubation, PMA 100ng/mL 30 min, normalized to GAPDH signal; single assay or mean of multiple assays
Description: Cellular P90RSK(Ser380) Phosphorylation Assay
Inhibition of PMA-stimulated P90RSK(Ser380) phosphorylation was determined by the following in vitro cellular mechanistic assay, which comprises incubating cells with a compound for 1.5 h and quantifying fluorescent pP90RSK(Ser380) signal on fixed cells and normalizing to GAPDH signal.
Materials and Methods: HepG2 cells were obtained from ATCC and grown in DMEM supplemented with 10% fetal bovine serum. Cells were plated in 96-well plates at 35,000 cells/well and allowed to attach overnight at 37 °C/5% CO2. Diluted compounds were then added at a final concentration of 0.5% DMSO. After 1.5 h compound incubation, cells were stimulated with the addition of PMA (phorbol 12-myristate 13-acetate) at a final concentration of 100ng/mL; the PMA stimulation was a 30-min incubation at 37 °C/5% CO2. After the 30-minute PMA stimulation, cells were washed with PBS and fixed in 3.7% formaldehyde in PBS at room temperature for 15-20 min. This was followed by another wash in PBS and then permeabilization in 100% MeOH at room temperature for 10-15 min. Following the permeabilization incubation, cells were washed in PBS/0.05% Tween-20, followed by a block in Odyssey blocking buffer (LI-COR Biosciences) for at least 1 hour. Antibodies to phosphorylated P90RSK(Ser380) (Cell Signaling #9335, rabbit monoclonal) and GAPDH (Fitzgerald 10R-G109a, mouse monoclonal) were added to the cells and incubated overnight at 4 °C. pP90RSK(Ser380) antibody was used at a 1:250 dilution; GAPDH was used at a 1:10,000 dilution. After washing with PBS/0.05% Tween-20, the cells were incubated with fluorescently-labeled secondary antibodies (Anti-rabbit-Alexa Flour680, Invitrogen Cat#A21109; Anti-mouse-IRDye800CW, Rockland Inc. Cat#610-131-121) for 1 h. Both secondary antibodies were used at a 1:1000 dilution. Cells were then washed and analyzed for fluorescence at both wavelengths using the Odyssey Infrared Imaging System (LI-COR Biosciences). Phosphorylated P90RSK(Ser380) signal was normalized to GAPDH signal. Representative data is in TABLE III (infra). The reported IC50 may be from a single assay or the mean of multiple assays.

HCT116 cells = test: Cell Proliferation/Viability Assay (Cell Titer-Blue); type: cell-based; settings: Homo sapiens, HCT-116, 3-day (72-hour) incubation, single assay or mean of multiple assays
Description: Cell Proliferation/Viability Assay
Viable cells after a 3-day (72-hour) incubation with ERK compounds were quantified using the Cell Titer-Blue Cell Viability Assay from Promega.
Materials and Methods: HCT116 cells were plated in 96 well micro-plates at a density of 1,000 cells/well. The cells were allowed to attach to micro-plate overnight at 37 °C/5% CO2. After overnight attachment, diluted compounds were then added to the cells at a final concentration of 0.5% DMSO. After 3 days (72 hours) at 37 °C/5% CO2, the number of viable cells was determined using the Cell Titer-Blue Cell Viability Assay from Promega. Briefly, Cell Titer-Blue reagent were added to the cells and incubated for 1 hour. Fluorescence (560nmexcitation/590nmemission) was then read using a fluorescence micro-plate reader. Background from high concentration Erk-inhibited wells was subtracted. Representative data is in TABLE III (infra). The reported IC50 may be from a single assay or the mean of multiple assays.

[2] = target: T1, human ERK-2 (Mitogen Activated Kinase 1) (Homo sapiens, UniProt P28482); test: ERK-2 Enzymatic Assay; type: biochemical; settings: TABLE I; 5nM ERK-2 enzyme, 25µM ATP, S/T17 peptide substrate; single assay or mean of multiple assays
T1 construct: N-terminal 6-His fusion protein in E. coli and corresponding to aa 8-360; 6-His (N); made in house; host or cells: E. coli
T1 sequence (P28482 8-360): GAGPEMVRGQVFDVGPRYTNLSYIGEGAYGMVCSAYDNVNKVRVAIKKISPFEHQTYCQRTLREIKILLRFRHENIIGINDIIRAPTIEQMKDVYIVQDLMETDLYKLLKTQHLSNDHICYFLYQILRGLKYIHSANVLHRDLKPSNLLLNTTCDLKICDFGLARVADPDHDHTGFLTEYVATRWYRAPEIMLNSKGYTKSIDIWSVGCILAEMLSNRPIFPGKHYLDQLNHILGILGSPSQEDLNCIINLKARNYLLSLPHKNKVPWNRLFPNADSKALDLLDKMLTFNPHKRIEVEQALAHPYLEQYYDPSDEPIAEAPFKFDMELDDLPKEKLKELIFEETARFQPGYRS
Outline: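 Values are single or averaged runs. Reactions used E. coli-expressed 6-His ERK-2 aa 8-360 and Omnia S/T17 peptide substrate at ambient temperature.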

Structure (SMILES) | pIC50 [1] | pIC50 (HCT116 cells) | pIC50 [2]
CC(C)Nc1ncc2ccc(C(=O)N[C@H](c3ccc(C(F)(F)F)c(F)c3)[C@@H]3CCCN3)cc2n1 (stereo in doubt) [Compound I-5, 2-isopropylamino-quinazoline-7-carboxylic acid [(S)-(3-fluoro-4-trifluoromethyl-phenyl)-(R)-pyrrolidin-2-yl-methyl]-amide] | 7.93 | 6.53 | 8.64
C[C@@H](CO)Nc1ncc2ccc(C(=O)NC(c3ccc(Cl)c(F)c3)c3cnn(C)c3)cc2n1 (stereo partly drawn) [Compound I-1, N-((4-chloro-3-fluorophenyl)(1-methyl-1H-pyrazol-4-yl)methyl)-2-((S)-1-hydroxypropan-2-ylamino)quinazoline-7-carboxamide] | 7.12 | 5.62 | 
Cn1cc(C(NC(=O)c2ccc3cnc(NC4CCOCC4)nc3c2)c2ccc(Cl)c(F)c2)cn1 (stereo not shown) [Compound I-2, 2-(Tetrahydro-pyran-4-ylamino)-quinazoline-7-carboxylic acid [(4-chloro-3-fluoro-phenyl)-(1-methyl-1H-pyrazol-4-yl)-methyl]-amide] | 7.64 | 6.07 | 
O=C(N[C@@H](c1ccc(C(F)(F)F)c(F)c1)[C@@H]1CCCN1)c1ccc2cnc(NC3CCOCC3)nc2c1 [Compound I-3, 2-(Tetrahydropyran-4-ylamino)-quinazoline-7-carboxylic acid [(S)-(3-fluoro-4-tnfluoromethyl-phenyl)-(S)-pyrrolidin-2-yl-methyl]-amide] | 7.34 | 6.57 | 8.68
Cn1ccc([C@@H](NC(=O)c2cc(F)c3cnc(NC4CCOCC4)nc3c2)c2ccc(Cl)c(F)c2)n1 [Compound I-22, (S)-N-((4-chloro-3-fluorophenyl)(1-methyl-1H-pyrazol-3-yl)methyl)-5-fluoro-2-(tetrahydro-2H-pyran-4-ylamino)quinazoline-7-carboxamide] | 7.63 | 6.56 | 8.85
Cn1cc([C@@H](NC(=O)c2ccc3cnc(N[C@H]4CCOC[C@H]4F)nc3c2)c2ccc(Cl)c(F)c2)cn1 [Compound I-28, 2-((3S,4S)-3-fluoro-tetrahydropyran-4-ylamino)-quinazoline-7-carboxylic acid [(S)-(4-chloro-3-fluoro-phenyl)-(1-methyl-1H-pyrazol-4-yl)-methyl]-amide] | 7.06 | 5.68 | 8.60
O=C(NC(c1ccc(Cl)c(F)c1)c1ncno1)c1ccc2cnc(NC3CCOCC3)nc2c1 (stereo not shown) [Compound I-34, 2-(tetrahydro-pyran-4-ylamino)-quinazoline-7-carboxylic acid [(4-chloro-3-fluoro-phenyl)-[1,2,4]oxadiazol-5-yl-methyl]-amide] | 7.10 | 5.30 | 8.44
C[C@@H]1CC[C@H]([C@@H](NC(=O)c2ccc3cnc(NC4CCOCC4)nc3c2)c2ccc(Cl)c(F)c2)N1 [Compound I-35, 2-(tetrahydropyran-4-ylamino)-quinazoline-7-carboxylic acid [(S)-(4-chloro-3-fluoro-phenyl)-((2R,5R)-S-methyl-pyrrolidin-2-yl)-methyl]-amide] | 8.28 | 7.36 | 8.70
O=C(N[C@@H](c1ccc(F)c(Cl)c1)[C@@]1(F)CCNC1)c1ccc2cnc(NC3CCOCC3)nc2c1 [Compound I-39] | 7.76 | 8.00 | 8.92
